Test results taken from patent publication US4138491A, “Method for treating diabetes” (Daiichi Seiyaku Co., Ltd., priority 1976, dated 1979).
One block for each compound: values may come before it.

Assays:
blood sugar level [1] = test: Glucose tolerance test in streptozotocin-induced mildly diabetic rats; type: in vivo, rat (Wistar strain); settings: 20 mg/kg PO; glucose 1 g/kg; sum of increments at 15, 30, 60, 90 min vs control; 100 = no improvement
Procedure: (§1) One index for the treatment of diabetes is to improve this glucose tolerance. The compound of the present invention was orally administered to normal rats, Streptozotocin-induced mildly diabetic rats and AYKK-mice, and thereafter glucose was administered intraperitoneally 1 hour later, and the glucose tolerance was examined. […] Further, a lowering of blood sugar in the glucose tolerance test using normal rats was examined with the passage of time, and the results obtained are given in Table 1 below.
(§2) A sample aqueous solution or suspension was orally administered to the test animals which had been fasted for 24 hours and one hour later glucose was intraperitoneally or subcutaneously administered to the test animals. Thereafter, blood was sampled from the tail vein with the passage of time in order to determine the blood sugar level by the glucose-oxidase method.
*4The streptozotocin-induced mildly diabetic rats were produced by […]

blood sugar level [2] = test: Blood sugar lowering activity, fed AγKK (AYKK) mouse, hereditary diabetic; type: in vivo; settings: for Blood Sugar Level (control = 100), 1 Hr / Blood Sugar Level (control = 100), 2 Hrs / Blood Sugar Level (control = 100), 3 Hrs / Blood Sugar Level (control = 100), 5 Hrs: fed AγKK mouse
Procedure: (§3) The compounds of the present invention were orally administered to normal rats, mice, dogs and hereditary diabetic mice(AYKK-mice), and the blood sugar lowering activity was examined.
(§4) Test animals which were used included animals which had been fasted for 24 hours to achieve an empty stomach, and animals which had been fed to achieve a full stomach without any restriction of diet. A sample aqueous solution or suspension was orally administered, and blood was sampled with the passage of time from the tail vein or the cephalic vein in order to determine the level of blood sugar by the glucose-oxidase method.

blood sugar level [3] = test: Blood sugar lowering activity, fasted rat; type: in vivo
Procedure: as §3, §4

blood insulin [4] = test: Insulin releasing action, fed rats; type: in vivo, rat; settings: 50 mg/kg iv
Procedure: (§5) Among the test animals fed rats were anesthetized by administration of pentobarbital (40 mg/kg, ip), and administered, intravenously with an isotonic sodium chloride solution of Compound A. An aqueous solution of the sample was orally administered to fed mice. In both cases blood was sampled from the tail vein with the passage of time, and the blood insulin was determined by the radioimmunoassay method of Morgen et al [Diabetes, Vol. 12, pp 115 (1963)]. At the same time blood sugar was also determined. […] The amount of insulin released in Table 4 was obtained by determining the difference between the blood insulin level at 5 points (5, 10, 20, 30, 40 minutes) during a 40 minute period after administration of the sample in the case of rats or 3 points (0.5, 1.0, 2.0 hours) during a 2 hour period after administration of the sample in the case of mice and the blood insulin level at 0 minute just before administration of the sample and then by summing up these differences.

blood sugar level [5] = test: Glucose tolerance test in AYKK mice; type: in vivo, AYKK mouse; settings: glucose 1 g/kg, sum of increments at 15, 30, 60, 90 min vs control, 100 = no improvement
Procedure: as §1, §2
*5AYKK-mouse was obtained by mating a yellow mouse having symptoms of […]

blood sugar level [6] = test: Glucose tolerance test in normal rats (oral compound, glucose load 1 hour later); type: in vivo, normal rat; settings: for Glucose Tolerance Improving Activity / Blood Glucose Level, 0 min / Blood Glucose Level, 15 min / Blood Glucose Level, 30 min / Blood Glucose Level, 60 min / Blood Glucose Level, 90 min / Blood Glucose Level, before glucose load (-60 min.): glucose 2 g/kg; for Glucose Tolerance Improving Activity: sum of increments at 15, 30, 60, 90 min vs control, 100 = no improvement
Procedure: as §1, §2

blood insulin [7] = test: Insulin releasing action, fed mice; type: in vivo, mouse
Procedure: as §5

blood sugar level [8] = test: Blood sugar lowering activity, fed mouse; type: in vivo
Procedure: as §3, §4

[9] = system: blood platelet aggregation induced by collagen in rat platelet rich plasma; test: Blood platelet aggregation inhibiting activity (collagen induced, in vitro); type: cell-based; settings: read-out: Platelet Aggregation Inhibition Activity, ID50
Procedure: It is generally said that blood platelet aggregability is accelerated in a diabetes patient and that this secondarily causes blood vessel disorders. […] Thus, based on this the compounds of the present invention are expected to be useful in preventing and improving the secondary vasular lesions of diabetes mellitus.
Citrated rat blood was centrifuged in order to obtain platelet rich plasma, and to 0.4 ml of this plasma was added 50 μl of sample solution. To the resulting solution was added 50 μl of collagen suspension under stirring, and platelet aggregation reaction was determined according to the method of Born [Nature, Vol. 194, pp. 927 (1962)]. The concentration of the sample (ID50) which inhibits 50% of the aggregation reaction of the control without the test sample added is shown in Table 6 below.

Acute toxicity (rat) = settings: in vivo, read-out: Acute Toxicity (rat) ID50
blood sugar level [10] = test: Blood sugar lowering activity, fasted beagle; type: in vivo, beagle dog; settings: 25 mg/kg PO
Procedure: as §3, §4

serum lactate level = test: Influence on serum lactate level, repeated administration for 4 days; type: in vivo, normal rat
Procedure: The biguanide drugs heretofore used as a treatment for diabetes are said undesirably to cause acidosis due to an increase of serum lactate level when such drugs are repeatedly administered. The compounds of the present invention were repeatedly administered for 4 days to normal rats and the serum lactate level was determined every day to compare such with the administration of phenformine which is one example of a biguanide drug.
Compound A was repeatedly administered for 4 days to normal rats in a dosage of 200 mg/kg/day, and blood was sampled with the passage of time in order to determine the serum lactate level.

Compound: CCCCNC(=O)NS(=O)(=O)c1ccc(C)cc1 [Tolbutamide, reference compound]
Glucose Tolerance Improving Activity (blood sugar level [1]): 67.4% | Blood Sugar Level (control = 100), 1 Hr (blood sugar level [2]; 50 mg/kg PO): 94% | Blood Sugar Level (control = 100), 2 Hrs (blood sugar level [2]; 50 mg/kg PO): 86% | Blood Sugar Level (control = 100), 3 Hrs (blood sugar level [2]; 50 mg/kg PO): 86% | Blood Sugar Level (control = 100), 5 Hrs (blood sugar level [2]; 50 mg/kg PO): 92% | effectiveness on AYKK-mice (blood sugar lowering) (blood sugar level [2]; oral, AYKK-mice, in words): uneffective | Blood Sugar Level (control = 100), 1 Hr (blood sugar level [3]; 10 mg/kg PO): 96% | Blood Sugar Level (control = 100), 2 Hrs (blood sugar level [3]; 10 mg/kg PO): 89% | Blood Sugar Level (control = 100), 3 Hrs (blood sugar level [3]; 10 mg/kg PO): 92% | Blood Sugar Level (control = 100), 5 Hrs (blood sugar level [3]; 10 mg/kg PO): 91% | Blood Sugar Level (control = 100), 1 Hr (blood sugar level [3]; 25 mg/kg PO): 90% | Blood Sugar Level (control = 100), 2 Hrs (blood sugar level [3]; 25 mg/kg PO): 80% | Blood Sugar Level (control = 100), 3 Hrs (blood sugar level [3]; 25 mg/kg PO): 76% | Blood Sugar Level (control = 100), 5 Hrs (blood sugar level [3]; 25 mg/kg PO): 82% | Blood Sugar Level (blood insulin [4]; after 90 minutes, control = 100): 56% | Amount of Insulin Released (blood insulin [4]; sum of differences at 5, 10, 20, 30, 40 min): 189±26 μunit/ml | Glucose Tolerance Improving Activity (blood sugar level [5]; 50 mg/kg PO): 69.6% | Glucose Tolerance Improving Activity (blood sugar level [6]; 20 mg/kg PO): 64.5% | Blood Glucose Level, 0 min (blood sugar level [6]; 20 mg/kg): 79 ± 2 mg/dL | Blood Glucose Level, 15 min (blood sugar level [6]; 20 mg/kg): 121 ± 5 mg/dL | Blood Glucose Level, 30 min (blood sugar level [6]; 20 mg/kg): 114 ± 5 mg/dL | Blood Glucose Level, 60 min (blood sugar level [6]; 20 mg/kg): 98 ± 5 mg/dL | Blood Glucose Level, 90 min (blood sugar level [6]; 20 mg/kg): 90 ± 4 mg/dL | Blood Glucose Level, before glucose load (-60 min.) (blood sugar level [6]; 20 mg/kg): 80 ± 2 mg/dL | Blood Sugar Level (blood insulin [7]; fed mice, 50 mg/kg po, after 2 hours, control = 100): 95.7% | Amount of Insulin Released (blood insulin [7]; fed mice, 50 mg/kg po, sum of differences at 0.5, 1.0, 2.0 hours): -2.2±3.3 μunit/ml | insulin releasing action in mice (blood insulin [7]; mice, in words): little action on insulin release | Blood Sugar Level (control = 100), 1 Hr (blood sugar level [8]; 50 mg/kg PO): 95% | Blood Sugar Level (control = 100), 2 Hrs (blood sugar level [8]; 50 mg/kg PO): 92% | Blood Sugar Level (control = 100), 3 Hrs (blood sugar level [8]; 50 mg/kg PO): 74% | Blood Sugar Level (control = 100), 5 Hrs (blood sugar level [8]; 50 mg/kg PO): 96%

Compound: c1ccc(C(CC2=NCCN2)c2ccccn2)cc1 (stereo not shown) [Compound B, 2-[2-phenyl-2-(2-pyridyl)]ethylimidazoline]
IC50 [9]: 300 µM | Blood Sugar Level (control = 100), 1 Hr (blood sugar level [2]; 25 mg/kg PO): 77% | Blood Sugar Level (control = 100), 2 Hrs (blood sugar level [2]; 25 mg/kg PO): 75% | Blood Sugar Level (control = 100), 3 Hrs (blood sugar level [2]; 25 mg/kg PO): 72% | Blood Sugar Level (control = 100), 5 Hrs (blood sugar level [2]; 25 mg/kg PO): 78% | LD50 (Acute toxicity (rat)): 867 mg/kg | Blood Sugar Level (control = 100), 1 Hr (blood sugar level [3]; 10 mg/kg PO): 71% | Blood Sugar Level (control = 100), 2 Hrs (blood sugar level [3]; 10 mg/kg PO): 67% | Blood Sugar Level (control = 100), 3 Hrs (blood sugar level [3]; 10 mg/kg PO): 58% | Blood Sugar Level (control = 100), 5 Hrs (blood sugar level [3]; 10 mg/kg PO): 73% | Blood Sugar Level (control = 100), 1 Hr (blood sugar level [3]; 25 mg/kg PO): 83% | Blood Sugar Level (control = 100), 2 Hrs (blood sugar level [3]; 25 mg/kg PO): 68% | Blood Sugar Level (control = 100), 3 Hrs (blood sugar level [3]; 25 mg/kg PO): 68% | Blood Sugar Level (control = 100), 5 Hrs (blood sugar level [3]; 25 mg/kg PO): 76% | Glucose Tolerance Improving Activity (blood sugar level [5]; 25 mg/kg PO): 62.7% | Blood Sugar Level (control = 100), 1 Hr (blood sugar level [10]; 1 h): 76% | Blood Sugar Level (control = 100), 2 Hrs (blood sugar level [10]; 2 h): 58% | Blood Sugar Level (control = 100), 3 Hrs (blood sugar level [10]; 3 h): 70% | Blood Sugar Level (control = 100), 5 Hrs (blood sugar level [10]; 5 h): 71% | Glucose Tolerance Improving Activity (blood sugar level [6]; 10 mg/kg PO): 22.0% | Blood Glucose Level, 0 min (blood sugar level [6]; 10 mg/kg): 74 ± 3 mg/dL | Blood Glucose Level, 15 min (blood sugar level [6]; 10 mg/kg): 91 ± 9 mg/dL | Blood Glucose Level, 30 min (blood sugar level [6]; 10 mg/kg): 91 ± 5 mg/dL | Blood Glucose Level, 60 min (blood sugar level [6]; 10 mg/kg): 79 ± 4 mg/dL | Blood Glucose Level, 90 min (blood sugar level [6]; 10 mg/kg): 68 ± 5 mg/dL | Blood Glucose Level, before glucose load (-60 min.) (blood sugar level [6]; 10 mg/kg): 90 ± 2 mg/dL | blood sugar level maintained after glucose load (blood sugar level [6]; normal rats, Table 1, in words): maintains the blood sugar level in the range of the fasting blood sugar level | rise in blood sugar level due to the glucose load (blood sugar level [6]; normal rats, Table 1, in words): scarcely any rise in blood sugar level | Blood Sugar Level (control = 100), 1 Hr (blood sugar level [8]; 25 mg/kg PO): 77% | Blood Sugar Level (control = 100), 2 Hrs (blood sugar level [8]; 25 mg/kg PO): 68% | Blood Sugar Level (control = 100), 3 Hrs (blood sugar level [8]; 25 mg/kg PO): 78% | Blood Sugar Level (control = 100), 5 Hrs (blood sugar level [8]; 25 mg/kg PO): 86%

Serum Lactate Level, 0 Day (serum lactate level; 0 Day, Compound A 200 mg/kg/day (phenformin dose not given)): 1.061±0.099 μ mol/ml | Serum Lactate Level, After 1 Day (serum lactate level; After 1 Day, Compound A 200 mg/kg/day (phenformin dose not given)): 2.086±0.066 μ mol/ml | Serum Lactate Level, After 4 Days (serum lactate level; After 4 Days, Compound A 200 mg/kg/day (phenformin dose not given)): 3.009±0.641 μ mol/ml
Compound: [H]/N=C(/N)N/C(=N/[H])NCCc1ccccc1 [Phenformin]
increase in serum lactate level (serum lactate level; repeated administration for 4 days, normal rats, in words): remarkable increase in serum lactate level
